Among the data in BindingDB's records for doi:10.1021/cb900232a (Stanford University, 2010) are IC50 values, retold here.

Assay in all cases: Enzyme kinetic assay
One assay deals with Cathepsin B (Mus musculus, UniProt P10605). To be noted: pH 6.25; 25 °C. As to the method: (§1) IC50 measurements and enzyme kinetics assays were performed on a Spectramax M5 fluorescent plate reader (Molecular Devices).
Another assay has as its target T1, Caspase-3 (Mus musculus, UniProt P70677).
T1 sequence (P70677 whole entry): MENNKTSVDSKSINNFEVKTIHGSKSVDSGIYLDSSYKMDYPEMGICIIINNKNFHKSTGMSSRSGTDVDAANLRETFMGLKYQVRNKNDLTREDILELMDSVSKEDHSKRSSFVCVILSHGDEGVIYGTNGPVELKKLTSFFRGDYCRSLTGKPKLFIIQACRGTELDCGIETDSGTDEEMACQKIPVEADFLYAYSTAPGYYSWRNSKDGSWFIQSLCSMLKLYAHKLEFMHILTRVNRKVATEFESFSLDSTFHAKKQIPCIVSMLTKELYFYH
To be noted: pH 7.4; 25 °C. The protocol:
as §1

The next assay deals with T2, Procathepsin L (Mus musculus, UniProt P06797).
T2 sequence (P06797 whole entry): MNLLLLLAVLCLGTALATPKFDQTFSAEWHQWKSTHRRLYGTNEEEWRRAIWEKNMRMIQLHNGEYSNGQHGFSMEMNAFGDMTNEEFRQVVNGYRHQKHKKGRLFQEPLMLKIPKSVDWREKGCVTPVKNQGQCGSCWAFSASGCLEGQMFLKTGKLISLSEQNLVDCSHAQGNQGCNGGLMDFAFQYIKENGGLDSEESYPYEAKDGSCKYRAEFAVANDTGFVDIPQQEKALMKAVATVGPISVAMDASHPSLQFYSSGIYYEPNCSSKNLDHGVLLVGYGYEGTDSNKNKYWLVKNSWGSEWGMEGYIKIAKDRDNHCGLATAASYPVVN
To be noted: pH 6.25; 25 °C. The protocol:
as §1

Another assay concerns the target T3, Legumain (Mus musculus, UniProt O89017).
T3 sequence (O89017 whole entry): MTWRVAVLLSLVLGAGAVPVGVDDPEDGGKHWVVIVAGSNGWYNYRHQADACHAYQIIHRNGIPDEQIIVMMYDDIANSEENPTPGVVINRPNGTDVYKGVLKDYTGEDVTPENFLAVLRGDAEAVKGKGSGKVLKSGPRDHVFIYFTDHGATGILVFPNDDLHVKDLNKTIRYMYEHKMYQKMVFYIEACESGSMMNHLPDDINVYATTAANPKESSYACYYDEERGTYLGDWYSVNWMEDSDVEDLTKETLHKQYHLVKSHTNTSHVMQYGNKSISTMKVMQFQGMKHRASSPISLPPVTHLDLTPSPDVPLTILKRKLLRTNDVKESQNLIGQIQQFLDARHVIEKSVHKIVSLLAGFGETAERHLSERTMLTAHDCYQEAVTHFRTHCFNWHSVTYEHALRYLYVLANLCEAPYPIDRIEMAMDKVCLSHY
To be noted: pH 5.8; 25 °C. As to the method:
as §1

Chain of Cathepsin B (P10605 whole entry): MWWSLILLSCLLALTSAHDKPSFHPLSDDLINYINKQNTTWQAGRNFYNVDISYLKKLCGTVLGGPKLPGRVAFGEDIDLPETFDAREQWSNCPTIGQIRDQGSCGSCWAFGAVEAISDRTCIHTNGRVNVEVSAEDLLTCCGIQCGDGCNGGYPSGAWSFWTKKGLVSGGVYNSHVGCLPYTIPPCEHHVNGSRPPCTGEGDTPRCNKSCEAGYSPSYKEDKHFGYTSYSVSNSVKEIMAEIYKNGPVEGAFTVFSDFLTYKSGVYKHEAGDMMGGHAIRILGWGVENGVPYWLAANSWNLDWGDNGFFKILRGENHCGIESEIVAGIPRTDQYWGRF

Regarding `CCOC(=O)[C@H]1O[C@@H]1C(=O)N(CC(N)=O)NC(=O)[C@@H]1CCCN1C(C)=O` [LI-1], the IC50 at Cathepsin B was 390 µM; against Caspase-3, 890 µM; at Procathepsin L, 220 µM; on Legumain, 0.0115 µM.

In the case of `CCOC(=O)[C@H]1O[C@@H]1C(=O)N[C@H](C(=O)NCCc1ccc(O)cc1)C(C)CC` (stereo partly specified) [CID644294], the results for the 50% inhibitory concentration (IC50) against Cathepsin B and on Procathepsin L were 0.78 µM and 2.98 µM, respectively.
